Assay results taken from US12662482B2 (The Johns Hopkins University, priority 2020, dated 2026).
Structures can show the parent of a compound that is named as a salt.

tested on: RPA194; experiment: RPA194 destruction / Pol I inhibition, high-content imaging in A375 cells; assay type: cell-based; conditions: A375 cells treated for 4 hours, anti-RPA194 immunofluorescence; pIC50 >= 5.02 deemed a Pol I inhibitor
Experimental: Cell culture: A375 cells (CRL-1619, ATCC) were grown in DMEM (GJBCO) supplemented with […] (GTBCO) in 5% CO2 at 37° C.
Cell treatment and Imaging: 18 hours post-seeding in cell carrier black 384-well plates (PerkinElmer) at 15 000 cells/well, A375 cells were treated for 4 hours with a positive control or test compounds (9 serial semi-log dilutions, top concentration 10 μM). Upon treatment A375 cells were (i) fixed for 15 min at RT with 4% of paraformaldehyde, (ii) permeabilized for 20 min at RT with 0.1-0.5% of NP-40, (iii) incubated with primary antibodies at 4° C.: anti-RPA194 (1:1000-1:1250 dilution, sc-48385, Santa Cruz Biotechnology) and anti-gH2Ax (1:5000 dilution, 81299, Abcam or 1:4000, JBW302, Millipore) (iv) incubated for 1 h at RT with Hoechst (1:5000 dilution, H3570, ThermoFisher) and secondary antibodies: anti-mouse-AlexaFluor488 (1:2000 dilution, A11001, ThermoFisher) and anti-rabbit-AlexaFluor647 (1:2000 dilution, A21443, ThermoFisher) or goat anti-mouse AlexaFluor-594 (1:1000 dilution). Images were acquired on an Operetta CLS High-Content Analysis System (PerkinElmer) (40× objective; 9 fields/well) and processed using the Columbus Image Analysis System (PerkinElmer) or by using Molecular Devices ImageXpress Micro XLS High Content Imager and MetaXpress high-content acquisition and analysis software.
In the table below, (+) is associated with a pIC50 5.02 to 5.8; (++) with pIC50 5.8 to 6.3; and (+++) with a pIC50 above 6.3.

SMILES | Activity Range (pIC50)
CO[C@@H]1CCN(CCNC(=O)c2cccn3c(=O)c4ccc5ccccc5c4nc23)C1 [Example 24, (R)-N-(2-(3-methoxypyrrolidin-1-yl)ethyl)-7-oxo-7H-benzo[h]pyrido[2,1-b]quinazoline-12-carboxamide hydrochloride] | ++ ((++) with pIC50 5.8 to 6.3)
O=C(NCCCN1CC[C@@H](O)C1)c1cccn2c(=O)c3ccc4ccccc4c3nc12 [Example 40, (R)-N-(3-(3-hydroxypyrrolidin-1-yl)propyl)-7-oxo-7H-benzo[h]pyrido[2,1-b]quinazoline-12-carboxamide; hydrochloride] | + ((+) is associated with a pIC50 5.02 to 5.8)
O=C(NCCN1CC[C@@H](O)C1)c1cccn2c(=O)c3ccc4ccccc4c3nc12 [Example 3, (R)-N-(2-(3-hydroxypyrrolidin-1-yl)ethyl)-7-oxo-7H-benzo[h]pyrido[2,1-b]quinazoline-12-carboxamide; hydrochloride] | +++ ((+++) with a pIC50 above 6.3)
CNC(C)CNC(=O)c1cccn2c(=O)c3ccc4ccccc4c3nc12 (single isomer, unassigned) [Example 19, (S or R)-N-(2-(methylamino)propyl)-7-oxo-7H-benzo[h]pyrido[2,1-b]quinazoline-12-carboxamide; hydrochloride] | ++ ((++) with pIC50 5.8 to 6.3)
CN(C)CCCNC(=O)c1cccn2c(=O)c3ccc4ccccc4c3nc12 [Example 38, N-(3-(dimethylamino)propyl)-7-oxo-7H-benzo[h]pyrido[2,1-b]quinazoline-12-carboxamide; hydrochloride] | + ((+) is associated with a pIC50 5.02 to 5.8)
CN1CC(NC(=O)c2cccn3c(=O)c4ccc5ccccc5c4nc23)C1 [Example 9, N-(1-methylazetidin-3-yl)-7-oxo-7H-benzo[h]pyrido[2,1-b]quinazoline-12-carboxamide hydrochloride] | ++ ((++) with pIC50 5.8 to 6.3)
CN1CC(CNC(=O)c2cccn3c(=O)c4ccc5ccccc5c4nc23)C1 [Example 37, N-((1-methylazetidin-3-yl)methyl)-7-oxo-7H-benzo[h]pyrido[2,1-b]quinazoline-12-carboxamide; hydrochloride] | + ((+) is associated with a pIC50 5.02 to 5.8)
O=C(NC1CNC1)c1cccn2c(=O)c3ccc4ccccc4c3nc12 [Example 8, N-(azetidin-3-yl)-7-oxo-7H-benzo[h]pyrido[2,1-b]quinazoline-12-carboxamide dihydrochloride] | + ((+) is associated with a pIC50 5.02 to 5.8)
CO[C@H]1CCN(CCNC(=O)c2cccn3c(=O)c4ccc5ccccc5c4nc23)C1 [Example 23, (S)-N-(2-(3-methoxypyrrolidin-1-yl)ethyl)-7-oxo-7H-benzo[h]pyrido[2,1-b]quinazoline-12-carboxamide hydrochloride] | +++ ((+++) with a pIC50 above 6.3)
C[C@H](CN1C[C@H](O)[C@@H](O)C1)NC(=O)c1cccn2c(=O)c3ccc4ccccc4c3nc12 [Example 27, N-((R)-1-((3S,4S)-3,4-dihydroxy-pyrrolidin-1-yl)propan-2-yl)-7-oxo-7H-benzo[h]pyrido[2,1-b]quinazoline-12-carboxamide hydrochloride] | ++ ((++) with pIC50 5.8 to 6.3)
C[C@H](CN1CC[C@H](O)C1)NC(=O)c1cccn2c(=O)c3ccc4ccccc4c3nc12 [Example 30, N-((R)-1-((S)-3-hydroxypyrrolidin-1-yl)propan-2-yl)-7-oxo-7H-benzo[h]pyrido[2,1-b]quinazoline-12-carboxamide hydrochloride] | +++ ((+++) with a pIC50 above 6.3)
C[C@@H](CNC(=O)c1cccn2c(=O)c3ccc4ccccc4c3nc12)N(C)C [Example 10, (S)-N-(2-(dimethylamino)propyl)-7-oxo-7H-benzo[h]pyrido[2,1-b]quinazoline-12-carboxamide; hydrochloride] | ++ ((++) with pIC50 5.8 to 6.3)
C[C@H]1CCCN1CCNC(=O)c1cccn2c(=O)c3ccc4ccccc4c3nc12 [Example 36, (S)-N-(2-(2-methylpyrrolidin-1-yl)ethyl)-7-oxo-7H-benzo[h]pyrido[2,1-b]quinazoline-12-yl)ethan-1-carboxamide; hydrochloride] | + ((+) is associated with a pIC50 5.02 to 5.8)
O=C(NCCN1C[C@@H](O)[C@H](O)C1)c1cccn2c(=O)c3ccc4ccccc4c3nc12 [Example 7, N-(2-((3R,4R)-3,4-dihydroxy-pyrrolidin-1-yl)ethyl)-7-oxo-7H-benzo[h]pyrido[2,1-b]quinazoline-12-carboxamide hydrochloride] | +++ ((+++) with a pIC50 above 6.3)
CCN(CC)CCNC(=O)c1cccn2c(=O)c3ccc4ccccc4c3nc12 [Example 12, N-(2-(diethylamino)ethyl)-7-oxo-7H-benzo[h]pyrido[2,1-b]quinazoline-12-carboxamide; hydrochloride] | ++ ((++) with pIC50 5.8 to 6.3)
C[C@@H](CN1CC[C@@H](O)C1)NC(=O)c1cccn2c(=O)c3ccc4ccccc4c3nc12 [Example 29, N-((S)-1-((R)-3-hydroxypyrrolidin-1-yl)propan-2-yl)-7-oxo-7H-benzo[h]pyrido[2,1-b]quinazoline-12-carboxamide hydrochloride] | ++ ((++) with pIC50 5.8 to 6.3)
NCCNC(=O)c1cccn2c(=O)c3ccc4ccccc4c3nc12 [Example 17, N-(2-aminoethyl)-7-oxo-7H-benzo[h]pyrido[2,1-b]quinazoline-12-carboxamide hydrochloride] | + ((+) is associated with a pIC50 5.02 to 5.8)
O=C(NCCN1CCCCC1)c1cccn2c(=O)c3ccc4ccccc4c3nc12 [Example 15, 7-oxo-N-(2-(piperidin-1-yl)ethyl)-7H-benzo[h]pyrido[2,1-b]quinazoline-12-carboxamide; hydrochloride] | ++ ((++) with pIC50 5.8 to 6.3)

tested on: NCI60 cancer cell lines; experiment: not given; conditions: cited from earlier work

SMILES | anticancer activity
CN(C)CCNC(=O)c1cccn2c(=O)c3cc4ccccc4cc3nc12 [BMH-21, 12H-Benzo[g]pyrido[2,1-b]quinazoline-4-carboxamide, N-[2(dimethylamino)ethyl]-12-oxo] | anticancer activity

tested on: mouse xenograft; experiment: not given; conditions: mouse xenograft assays; cited from earlier work

SMILES | tumor burden
CN(C)CCNC(=O)c1cccn2c(=O)c3cc4ccccc4cc3nc12 [BMH-21, 12H-Benzo[g]pyrido[2,1-b]quinazoline-4-carboxamide, N-[2(dimethylamino)ethyl]-12-oxo] | reduced tumor burden
